Experiment [1] has as its target T1, TbrPDEB1 (Trypanosoma brucei, UniProt Q8WQX9).
T1 sequence (Q8WQX9 1-930): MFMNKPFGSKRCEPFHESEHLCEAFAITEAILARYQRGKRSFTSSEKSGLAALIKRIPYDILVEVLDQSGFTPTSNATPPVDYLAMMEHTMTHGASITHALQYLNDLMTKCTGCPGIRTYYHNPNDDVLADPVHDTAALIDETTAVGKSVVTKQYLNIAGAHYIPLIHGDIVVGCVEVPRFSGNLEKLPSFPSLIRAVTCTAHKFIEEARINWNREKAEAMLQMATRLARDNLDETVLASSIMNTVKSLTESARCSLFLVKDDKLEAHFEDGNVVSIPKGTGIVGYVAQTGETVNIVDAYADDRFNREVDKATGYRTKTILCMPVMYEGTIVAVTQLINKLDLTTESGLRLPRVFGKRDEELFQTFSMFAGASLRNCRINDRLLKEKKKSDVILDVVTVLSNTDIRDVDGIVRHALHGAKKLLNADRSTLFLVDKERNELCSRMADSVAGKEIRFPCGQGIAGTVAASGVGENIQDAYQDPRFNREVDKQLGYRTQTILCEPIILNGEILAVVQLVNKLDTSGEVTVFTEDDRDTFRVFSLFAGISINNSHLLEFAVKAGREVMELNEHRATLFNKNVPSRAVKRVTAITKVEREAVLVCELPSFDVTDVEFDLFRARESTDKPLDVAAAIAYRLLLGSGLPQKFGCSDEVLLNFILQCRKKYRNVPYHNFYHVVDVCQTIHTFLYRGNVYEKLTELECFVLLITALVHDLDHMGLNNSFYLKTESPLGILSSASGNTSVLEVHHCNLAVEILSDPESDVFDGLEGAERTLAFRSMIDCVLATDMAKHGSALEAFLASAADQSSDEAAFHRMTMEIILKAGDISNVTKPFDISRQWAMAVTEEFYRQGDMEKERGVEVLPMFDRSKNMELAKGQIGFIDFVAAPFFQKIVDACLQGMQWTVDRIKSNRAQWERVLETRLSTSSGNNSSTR
Put plainly: TbrPDEB1 biochemical assay. The conditions noted are these: for inhibition at 10 µM: read-out: TbrPDEB1 (% inh); for fold improvement of TbrPDEB1 activity over 3: relative to compound 3.

For experiment [2], the system named is Bloodstream forms of Trypanosoma brucei brucei strain 427. Put plainly: Trypanosome cell culture assay. The class given is cell-based. To be noted: 48 h, read-out: T brucei cell (EC50, μM).

One may read the EC50 as the concentration that produces a half-maximal response.

Where a name gives a salt, the structure may show the parent alone.

Regarding `CNC(=O)c1cccc(S(=O)(=O)c2cc(C)c3ncc(C(N)=O)c(Nc4cccc(OC)c4)c3c2)c1` [Compound 12b, 4-(3-methoxyphenylamino)-8-methyl-6-(3-(methylcarbamoyl)phenylsulfonyl)quinoline-3-carboxamide], the inhibition at 10 µM in experiment [1] was 66 ± 6.1%.

Consider `COc1cccc(Nc2c(C(N)=O)cnc3c(C)cc(S(=O)(=O)c4ccccc4)cc23)c1` [Compound 10b, 4-((3-methoxyphenyl)amino)-8-methyl-6-(phenylsulfonyl)quinoline-3-carboxamide], for which, in experiment [1], the inhibition at 10 µM came out at 21 ± 16%.

In the case of `COC(=O)c1cccc(Nc2cc(C)c3ncc(C(N)=O)c(Nc4cccc(OC)c4)c3c2)c1` [Compound 13, methyl 3-(3-carbamoyl-4-(3-methoxyphenylamino)-8-methylquinolin-6-ylamino)benzoate], in experiment [1], the inhibition at 10 µM came out at 84 ± 7.7%.

Take `COC(=O)c1cccc(-c2cc(C)c3ncc(C(N)=O)cc3c2)c1` [Compound 21b, methyl 3-(3-carbamoyl-8-methylquinolin-6-yl)benzoate]: the inhibition at 10 µM in experiment [1] is 0%.

Consider `COc1cccc(Nc2c(C(N)=O)cnc3c(C)cc(S(=O)(=O)c4cccc(C(=O)O)c4)cc23)c1` [Compound 11, 3-(3-carbamoyl-4-(3-methoxyphenylamino)-8-methylquinolin-6-ylsulfonyl)benzoic acid], for which, in experiment [1], the inhibition at 10 µM stood at 82 ± 10% and the “fold improvement of TbrPDEB1 activity over 3” value is given as “approximately 8 fold”.

Consider `COC(=O)c1cccc(-c2cc(C)c3ncc(C(N)=O)c(-c4cccc(C(=O)OC)c4)c3c2)c1` [Compound 21a, dimethyl 3,3′-(3-carbamoyl-8-methylquinoline-4,6-diyl)dibenzoate], for which the inhibition at 10 µM in experiment [1] amounted to 41 ± 5.8%.

Turning to `COC(=O)c1cccc(Sc2cc(C)c3ncc(C(N)=O)c(Nc4cccc(OC)c4)c3c2)c1` [Compound 9a, methyl 3-(3-carbamoyl-4-(3-methoxyphenylamino)-8-methylquinolin-6-ylthio)benzoate], in experiment [1], the inhibition at 10 µM came out at 12 ± 6.1%.

`COc1cccc(Nc2c(C(N)=O)cnc3c(C)cc(-c4cc(C(=O)O)cc(C(=O)O)c4)cc23)c1` [Compound 18a, 5-(3-carbamoyl-4-((3-methoxyphenyl)amino)-8-methylquinolin-6-yl)isophthalic acid]: the inhibition at 10 µM in experiment [1] was determined as 10 ± 5.3%.

Turning to `Cc1cc(-c2cccc(-c3ncco3)c2)cc2c(NC3CCCC3)c(C(N)=O)cnc12` [Compound 28, 4-(cyclopentylamino)-8-methyl-6-(3-(oxazol-2-yl)phenyl)quinoline-3-carboxamide], in experiment [1], the inhibition at 10 µM is 76 ± 2.2%.

As for `COc1cccc(Nc2c(C(N)=O)cnc3c(C)cc(S(=O)(=O)c4cccc(C(N)=O)c4)cc23)c1` [Compound 12a, 6-(3-carbamoylphenylsulfonyl)-4-(3-methoxyphenylamino)-8-methylquinoline-3-carboxamide], the inhibition at 10 µM in experiment [1] turned out to be 64 ± 7%.

For `CNC(=O)c1cnc2c(C)cc(-c3ccc4cnn(C)c4c3)cc2c1Nc1cccc(OC)c1` [Compound 27a, 4-((3-methoxyphenyl)amino)-N,8-dimethyl-6-(1-methyl-1H-indazol-6-yl)quinoline-3-carboxamide], the inhibition at 10 µM in experiment [1] is 34 ± 11%.

For `COc1cccc(Nc2c(C(N)=O)cnc3c(C)cc(Sc4ccccc4)cc23)c1` [Compound 9b, 4-((3-methoxyphenyl)amino)-8-methyl-6-(phenylthio)quinoline-3-carboxamide], the inhibition at 10 µM in experiment [1] is 10%.

As to `COc1cccc(Nc2c(C(N)=O)cnc3c(C)cc(S(=O)(=O)c4cccc(C(=O)N(C)C)c4)cc23)c1` [Compound 3, GSK-256066, reference compound], the EC50 in experiment [2] was 7.8 ± 2.5 µM. For the same molecule, the inhibition at 10 µM in experiment [1] was determined as 51 ± 3.9%.

For the molecule `COC(=O)c1cc(C(=O)O)cc(-c2cc(C)c3ncc(C(N)=O)c(Nc4cccc(OC)c4)c3c2)c1` [Compound 18b, 3-(3-carbamoyl-4-((3-methoxyphenyl)amino)-8-methylquinolin-6-yl)-5-(methoxycarbonyl)benzoic acid], the inhibition at 10 µM in experiment [1] came to 31 ± 14%.

For the molecule `COc1cccc(Nc2c(C(=O)N(C)C)cnc3c(C)cc(-c4ccc5cnn(C)c5c4)cc23)c1` [Compound 27b, 4-((3-methoxyphenyl)amino)-N,N,8-trimethyl-6-(1-methyl-1H-indazol-6-yl)quinoline-3-carboxamide, formic acid salt], in experiment [1], the inhibition at 10 µM was determined as 22 ± 3.8%.

In the case of `COC(=O)c1cccc(S(=O)(=O)c2cc(C)c3ncc(C(N)=O)c(Nc4cccc(OC)c4)c3c2)c1` [Compound 10a, methyl 3-(3-carbamoyl-4-(3-methoxyphenylamino)-8-methylquinolin-6-ylsulfonyl)benzoate], in experiment [2], the EC50 was 7.3 ± 0.97 µM. Also, in experiment [1], the inhibition at 10 µM was determined as 70 ± 7.9% and the “fold improvement of TbrPDEB1 activity over 3” value was “approximately 8 fold”.
